Reference: PMC8576438, “Identification and Functional Analysis of G Protein-Coupled Receptors in 20-Hydroxyecdysone Signaling From the Helicoverpa armigera Genome” (Frontiers in Cell and Developmental Biology, 2021)

System: T1, prolactin-releasing peptide receptor (PRRPR)
T1 construct: full ORF (XP_021184170.1) fused to GFP (PRRPR-GFP), in membranes of overexpressing HaEpi cells
Assay: saturation binding to membranes of PRRPR-GFP-overexpressing HaEpi cells, bound […] quantified by enzyme immunoassay ([…]-EIA)
Parameters: species or system Helicoverpa armigera

Structure (SMILES): CC(C)(O)CC[C@@H](O)[C@](C)(O)[C@H]1CC[C@@]2(O)C3=CC(=O)[C@@H]4C[C@@H](O)[C@@H](O)C[C@]4(C)[C@H]3CC[C@]12C [20E, 20-hydroxyecdysone]
- Kd: 0.0128 ± 0.00219 µM
